Data on 26 compounds can be found in patent publication US8324390B2, “Tetrazole-substituted anthranilamides as pesticides” (Bayer CropScience AG, priority 2008, dated 2012).

Where two headings read alike, the source gives them in different places.

Series [1] has as its system caterpillars of the armyworm (Spodoptera frugiperda). The experiment in a line: Spodoptera frugiperda test (SPODFR spray treatment). It is filed as in vivo. The conditions noted are these: Spodoptera frugiperda, foliar, read-out: effect in % (caterpillars killed). An excerpt: Solvent: 78.0 parts by weight of acetone
Series [2] in a line: log P determination by HPLC (EEC Directive 79/831 Annex V.A8). It is filed as physicochemical. How it is done: The measurements were carried out using an Agilent 1100 LC system with a 50*4.6 Zorbax Eclipse C18 1.8 μm column (oven temperature 55° C., flow rate 2.0 ml/min).
The following mobile phases were used:
Mobile phase A: acetonitrile+1000 μl of formic acid/l
Mobile phase B: Millipore water+900 μl of formic acid/l

Series [3] has as its system larvae of the mustard beetle (Phaedon cochleariae). The experiment in a line: Phaedon test (PHAECO spray treatment). The conditions noted are these: Phaedon cochleariae, in Brassica rapa, foliar, read-out: effect in % (beetle larvae killed).
The mark [4] stands for this setting: application rate 100 g/ha, maize leaf discs.
The mark [5] stands for this setting: reversed-phase HPLC, Zorbax Eclipse C18 column, determined by HPLC according to EEC Directive 79/831 Annex V.A8, read-out: log P.
Where [6] appears, read: reversed-phase HPLC, Zorbax Eclipse C18 column, by HPLC according to EEC Directive 79/831 Annex V.A8, read-out: log P.
Where [7] appears, read: by HPLC according to EEC Directive 79/831 Annex V.A8, read-out: log P.

On to `Cc1cc(C#N)cc(C(=O)NC(C)(C)C)c1NC(=O)c1cc(Cn2nnnc2C(F)(F)F)nn1-c1ccccc1` [Example 520], for which the pest or weed control at 100 g/ha in series [1] (setting [4]) and in series [3] was ≥ 80% in each case. The chromatographic logP in series [2] (setting [5]) stood at 3.35.

For `Cc1cc(C#N)cc(C(=O)NC(C2CC2)C2CC2)c1NC(=O)c1cc(Cn2nnc(C(F)(F)F)n2)nn1-c1ncccc1Cl` [Example 87], the pest or weed control at 100 g/ha in series [1] (in Zea mays) and in series [3] was ≥ 80% throughout. Further, in series [2] (log P), the chromatographic logP came to 3.65.

`Cc1cc(I)cc(C(=O)NC(C)C)c1NC(=O)c1cc(Cn2nnc(C(F)(F)F)n2)nn1-c1ncccc1Br` [Example 413]: the pest or weed control at 100 g/ha in series [1] (setting [4]) and in series [3] was ≥ 80% in each case. For the same compound, in series [2] (setting [5]), the chromatographic logP is 3.77.

For `Cc1cc(C#N)cc(C(=O)NCC#N)c1NC(=O)c1cc(Cn2nnc(C(F)(C(F)(F)F)C(F)(F)F)n2)nn1-c1ncccc1Cl` [Example 374], the pest or weed control at 100 g/ha in series [1] (setting [4]) and in series [3] was ≥ 80% in each case. For the same compound, the chromatographic logP in series [2] (setting [6]) came out at 3.29.

With `CNC(=O)c1cc(C#N)cc(C)c1NC(=O)c1cc(Cn2nnc(C(F)(F)C(F)(F)F)n2)nn1-c1ncccc1Cl` [Example 213], the pest or weed control at 100 g/ha in series [1] (in Zea mays) and in series [3] was ≥ 80% in each case. In addition, the chromatographic logP in series [2] (log P) amounted to 3.05.

Take `CNC(=O)c1cc(C#N)cc(C)c1NC(=O)c1cc(Cn2nnc(C(F)(F)F)n2)nn1-c1ncccc1Cl` [Example 12]: the pest or weed control at 100 g/ha in series [1] (in Zea mays) and in series [3] was ≥ 80% throughout. Besides, in series [2] (setting [6]), the chromatographic logP was 2.66.

For `Cc1cc(C#N)cc(C(=O)NC(C)(C)C)c1NC(=O)c1cc(Cn2nnc(C(F)(C(F)(F)F)C(F)(F)F)n2)nn1-c1ncccc1Cl` [Example 371], the pest or weed control at 100 g/ha in series [1] (setting [4]) and in series [3] was ≥ 80% each time. Besides, the chromatographic logP in series [2] (setting [6]) worked out at 4.1.

In the case of `CNC(=O)c1cc(Cl)cc(Cl)c1NC(=O)c1cc(Cn2nnnc2C(F)(F)F)nn1-c1ncccc1Cl` [Example 184], the pest or weed control at 100 g/ha in series [1] (in Zea mays) and in series [3] was ≥ 80% each time. For the same compound, the chromatographic logP in series [2] (log P) was found to be 2.63.

In the case of `Cc1cc(F)cc(C(=O)NC(C)(C)C)c1NC(=O)c1cc(Cn2nnc(C(F)(F)F)n2)nn1-c1ncccc1Cl` [Example 115], the pest or weed control at 100 g/ha in series [1] (in Zea mays) and in series [3] was ≥ 80% throughout. The same compound registered a chromatographic logP in series [2] (log P) of 3.51.

Regarding `Cc1cc(Cl)cc(C(=O)NC2CC2)c1NC(=O)c1cc(Cn2nnc(C(F)(F)C(F)(F)C(F)(F)F)n2)nn1-c1ncccc1Cl` [Example 4], the pest or weed control at 100 g/ha in series [1] (in Zea mays) and in series [3] was ≥ 80% in each case. Also, in series [2] (setting [7]), the chromatographic logP turned out to be 3.96.

`Cc1cc(Cl)cc(C(=O)NCC2CC2)c1NC(=O)c1cc(Cn2nnc(C(F)(F)F)n2)nn1-c1ncccc1Cl` [Example 46]: the pest or weed control at 100 g/ha in series [1] (in Zea mays) and in series [3] was ≥ 80% each time. The same compound displayed a chromatographic logP in series [2] (log P) of 3.53.

For `Cc1cc(I)cc(C(=O)NC(C)(C)C)c1NC(=O)c1cc(Cn2nnc(C(F)(F)F)n2)nn1-c1ncccc1Br` [Example 352], the pest or weed control at 100 g/ha in series [1] (setting [4]) and in series [3] was ≥ 80% throughout. Moreover, the chromatographic logP in series [2] (setting [6]) turned out to be 4.09.

For the compound `CCNC(=O)c1cc(I)cc(C)c1NC(=O)c1cc(Cn2nnc(C(F)(F)F)n2)nn1-c1ncccc1Br` [Example 408], the pest or weed control at 100 g/ha in series [1] (setting [4]) and in series [3] was ≥ 80% in each case. For the same compound, the chromatographic logP in series [2] (setting [5]) was determined as 3.51.

Take `Cc1cc(Cl)cc(C(=O)NCC#N)c1NC(=O)c1cc(Cn2nnc(C(F)(F)F)n2)nn1-c1ncccc1C(F)(F)F` [Example 252]: the pest or weed control at 100 g/ha in series [1] (setting [4]) and in series [3] was ≥ 80% each time. The chromatographic logP in series [2] (setting [6]) is 3.28.

As to `Cc1cc(Br)cc(C(=O)NC(C)C)c1NC(=O)c1cc(Cn2nnc(C(F)(F)F)n2)nn1-c1ncccc1Br` [Example 355], the pest or weed control at 100 g/ha in series [1] (setting [4]) and in series [3] was ≥ 80% in each case. Also, the chromatographic logP in series [2] (setting [6]) is 3.66.

Regarding `Cc1cc(C#N)cc(C(=O)NCC(F)F)c1NC(=O)c1cc(Cn2nnc(C(F)(C(F)(F)F)C(F)(F)F)n2)nn1-c1ncccc1Cl` [Example 375], the pest or weed control at 100 g/ha in series [1] (setting [4]) and in series [3] was ≥ 80% in each case. The chromatographic logP in series [2] (setting [6]) amounted to 3.57.

`Cc1cc(Cl)cc(C(=O)NCC2CC2)c1NC(=O)c1cc(Cn2nnc(C(F)(F)C(F)(F)F)n2)nn1-c1ncccc1Cl` [Example 131]: the pest or weed control at 100 g/ha in series [1] (in Zea mays) and in series [3] was ≥ 80% each time. This compound also displayed a chromatographic logP in series [2] (log P) of 3.93.

`Cc1cc(C#N)cc(C(=O)NC(C)(C)C)c1NC(=O)c1cc(Cn2nnc(C(F)(F)C(F)(F)C(F)(F)F)n2)nn1-c1ncccc1Cl` [Example 108]: the pest or weed control at 100 g/ha in series [1] (in Zea mays) and in series [3] was ≥ 80% in each case. Also, the chromatographic logP in series [2] (setting [7]) was determined as 4.16.

On to `CCNC(=O)c1cc(C#N)cc(C)c1NC(=O)c1cc(Cn2nnc(C(F)(F)C(F)(F)F)n2)nn1-c1ncccc1Cl` [Example 215], for which the pest or weed control at 100 g/ha in series [1] (in Zea mays) and in series [3] was ≥ 80% in each case. Further, the chromatographic logP in series [2] (log P) was found to be 3.24.

For `Cc1cc(Cl)cc(C(=O)NCC#N)c1NC(=O)c1cc(Cn2nnc(C(F)(F)F)n2)nn1-c1ncccc1Br` [Example 325], the pest or weed control at 100 g/ha in series [1] (setting [4]) and in series [3] was ≥ 80% throughout. In addition, the chromatographic logP in series [2] (setting [6]) was found to be 2.72.

Consider `Cc1cc(C#N)cc(C(=O)NC(C#N)C2CC2)c1NC(=O)c1cc(Cn2nnc(C(F)(F)F)n2)nn1-c1ncccc1Cl` (stereo not drawn) [Example 321], for which the pest or weed control at 100 g/ha in series [1] (in Zea mays) and in series [3] was ≥ 80% throughout. Besides, the chromatographic logP in series [2] (log P) is 3.05.

In the case of `Cc1cc(C)c(NC(=O)c2cc(Cn3nnc(C(F)(F)F)n3)nn2-c2ncccc2Cl)c(C(=O)NC2CC2)c1` [Example 119], the pest or weed control at 100 g/ha in series [1] (in Zea mays) and in series [3] was ≥ 80% throughout. Also, the chromatographic logP in series [2] (log P) came out at 3.04.

As for `Cc1cc(Cl)cc(C(=O)NC(C)(C)C)c1NC(=O)c1cc(Cn2nnnc2C(F)(F)F)nn1-c1ncccc1Cl` [Example 197], the pest or weed control at 100 g/ha in series [1] (in Zea mays) and in series [3] was ≥ 80% throughout. The chromatographic logP in series [2] (log P) worked out at 3.47.

Consider `Cc1cc(I)cc(C(=O)NC(C)C)c1NC(=O)c1cc(Cn2nnc(C(F)(F)C(F)(F)F)n2)nn1-c1ncccc1Cl` [Example 142], for which the pest or weed control at 100 g/ha in series [1] (in Zea mays) and in series [3] was ≥ 80% throughout. In series [2] (log P), this compound returned a chromatographic logP of 4.19.

Consider `Cc1cc(Cl)cc(C(=O)NC(C)C2CC2)c1NC(=O)c1cc(Cn2nnc(C(F)(C(F)(F)F)C(F)(F)F)n2)nn1-c1ncccc1Cl` (stereo not drawn) [Example 366], for which the pest or weed control at 100 g/ha in series [1] (setting [4]) and in series [3] was ≥ 80% throughout. For the same compound, the chromatographic logP in series [2] (setting [6]) was determined as 4.5.

With `CCNC(=O)c1cc(Br)cc(C)c1NC(=O)c1cc(Cn2nnc(C(F)(F)F)n2)nn1-c1ncccc1C(F)(F)F` [Example 244], the pest or weed control at 100 g/ha in series [1] (setting [4]) and in series [3] was ≥ 80% throughout. For the same compound, the chromatographic logP in series [2] (setting [6]) came out at 3.52.
